Assay results taken from the supplement of paper PMC10307832.

Compound: C/C(=N\NC(=S)N1CCC1)/C2=CC=CC=N2
Test: relative viability (nuclei count vs DMSO), 5 days (fraction); higher = more cells survive
Summary of the method: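 On vehicle-anchored 1536-well plates, lung cancer cell lines held overnight at 37 °C were pinned with five library-drug doses (not always all listed) spaced by √10. With no medium change over 5 days, they were then fixed, permeabilised and Hoechst-stained in one step and imaged at 4×. MetaXpress counted nuclei, and viability is the median across plates of treated-well over vehicle-well nuclei. Acceptance needed control CV below 25% and at least one doubling.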

Cell Line | relative viability (0.05 µM) | relative viability (0.1581 µM) | relative viability (0.5 µM) | relative viability (1.581 µM) | relative viability (5 µM)
NCI-H661 | 0.288 | 0.32 | 0.317 | 0.255 | 0.262
NCI-H727 | 0.25 | 0.235 | 0.245 | 0.27 | 0.272
NCI-H838 | 0.247 | 0.255 | 0.279 | 0.179 | 0.185
NCI-H1355 | 0.204 | 0.216 | 0.21 | 0.197 | 0.214
NCI-H1395 | 0.423 | 0.41 | 0.336 | 0.344 | 0.383
NCI-H1437 | 0.242 | 0.235 | 0.206 | 0.173 | 0.155
NCI-H1563 | 0.62 | 0.6 | 0.504 | 0.538 | 0.522
NCI-H1648 | 0.317 | 0.278 | 0.25 | 0.317 | 0.304
NCI-H1650 | 0.18 | 0.26 | 0.183 | 0.173 | 0.199
NCI-H1651 | 0.19 | 0.175 | 0.152 | 0.11 | 0.105
NCI-H1666 | 0.433 | 0.404 | 0.369 | 0.349 | 0.329
NCI-H1703 | 0.0684 | 0.0887 | 0.112 | 0.126 | 0.161
NCI-H1734 | 0.184 | 0.186 | 0.189 | 0.13 | 0.116
NCI-H1755 | 0.353 | 0.332 | 0.321 | 0.303 | 0.282
NCI-H1792 | 0.362 | 0.234 | 0.227 | 0.184 | 0.134
NCI-H1793 | 0.181 | 0.215 | 0.176 | 0.16 | 0.168
NCI-H1915 | 0.237 | 0.216 | 0.199 | 0.179 | 0.178
NCI-H1944 | 0.263 | 0.179 | 0.19 | 0.161 | 0.151
NCI-H1975 | 0.178 | 0.179 | 0.168 | 0.158 | 0.185
NCI-H1993 | 0.472 | 0.529 | 0.593 | 0.499 | 0.577

Cell Line | relative viability (0.05 µM) | relative viability (0.1581 µM) | relative viability (0.5 µM) | relative viability (1.581 µM) | relative viability (5 µM)
NCI-H2009 | 0.122 | 0.17 | 0.166 | 0.156 | 0.138
NCI-H2023 | 0.0831 | 0.0809 | 0.0814 | 0.0675 | 0.0747
NCI-H2085 | 0.359 | 0.321 | 0.357 | 0.299 | 0.313
NCI-H2087 | 0.16 | 0.218 | 0.19 | 0.165 | 0.138
NCI-H2126 | 0.236 | 0.246 | 0.214 | 0.197 | 0.21
NCI-H2170 | 0.391 | 0.282 | 0.268 | 0.198 | 0.176
NCI-H2228 | 0.192 | 0.217 | 0.21 | 0.118 | 0.187
NCI-H2342 | 0.274 | 0.277 | 0.266 | 0.239 | 0.259
NCI-H2347 | 0.315 | 0.346 | 0.34 | 0.256 | 0.313
NCI-H2405 | 0.294 | 0.296 | 0.288 | 0.274 | 0.283
NCI-H3122 | 0.13 | 0.121 | 0.129 | 0.168 | 0.141
PC-3 [JPC-3] | 0.473 | 0.459 | 0.358 | 0.309 | 0.231
PC-14 | 0.0727 | 0.104 | 0.0714 | 0.0553 | 0.064
RERF-LC-KJ | 0.263 | 0.262 | 0.252 | 0.244 | 0.248
SK-LU-1 | 0.24 | 0.233 | 0.25 | 0.168 | 0.208
SK-MES-1 | 0.197 | 0.231 | 0.192 | 0.171 | 0.19
SW 900 | 0.147 | 0.135 | 0.0841 | 0.127 | 0.188
SW 1573 | 0.119 | 0.115 | 0.143 | 0.102 | 0.0766
UMC-11 | 0.262 | 0.241 | 0.23 | 0.193 | 0.175
